molecular target: T1, IGFR kinase (Homo sapiens, UniProt P08069); assay: Enzyme assay (c), IGFR kinase, Caliper LabChip; format: biochemical; conditions: 30 nM IGFR kinase, 6 uM ATP, 3 uM peptide mix; read-out: IGFR IC50
T1 construct: purchased Millipore
T1 sequence (P08069 31-1367): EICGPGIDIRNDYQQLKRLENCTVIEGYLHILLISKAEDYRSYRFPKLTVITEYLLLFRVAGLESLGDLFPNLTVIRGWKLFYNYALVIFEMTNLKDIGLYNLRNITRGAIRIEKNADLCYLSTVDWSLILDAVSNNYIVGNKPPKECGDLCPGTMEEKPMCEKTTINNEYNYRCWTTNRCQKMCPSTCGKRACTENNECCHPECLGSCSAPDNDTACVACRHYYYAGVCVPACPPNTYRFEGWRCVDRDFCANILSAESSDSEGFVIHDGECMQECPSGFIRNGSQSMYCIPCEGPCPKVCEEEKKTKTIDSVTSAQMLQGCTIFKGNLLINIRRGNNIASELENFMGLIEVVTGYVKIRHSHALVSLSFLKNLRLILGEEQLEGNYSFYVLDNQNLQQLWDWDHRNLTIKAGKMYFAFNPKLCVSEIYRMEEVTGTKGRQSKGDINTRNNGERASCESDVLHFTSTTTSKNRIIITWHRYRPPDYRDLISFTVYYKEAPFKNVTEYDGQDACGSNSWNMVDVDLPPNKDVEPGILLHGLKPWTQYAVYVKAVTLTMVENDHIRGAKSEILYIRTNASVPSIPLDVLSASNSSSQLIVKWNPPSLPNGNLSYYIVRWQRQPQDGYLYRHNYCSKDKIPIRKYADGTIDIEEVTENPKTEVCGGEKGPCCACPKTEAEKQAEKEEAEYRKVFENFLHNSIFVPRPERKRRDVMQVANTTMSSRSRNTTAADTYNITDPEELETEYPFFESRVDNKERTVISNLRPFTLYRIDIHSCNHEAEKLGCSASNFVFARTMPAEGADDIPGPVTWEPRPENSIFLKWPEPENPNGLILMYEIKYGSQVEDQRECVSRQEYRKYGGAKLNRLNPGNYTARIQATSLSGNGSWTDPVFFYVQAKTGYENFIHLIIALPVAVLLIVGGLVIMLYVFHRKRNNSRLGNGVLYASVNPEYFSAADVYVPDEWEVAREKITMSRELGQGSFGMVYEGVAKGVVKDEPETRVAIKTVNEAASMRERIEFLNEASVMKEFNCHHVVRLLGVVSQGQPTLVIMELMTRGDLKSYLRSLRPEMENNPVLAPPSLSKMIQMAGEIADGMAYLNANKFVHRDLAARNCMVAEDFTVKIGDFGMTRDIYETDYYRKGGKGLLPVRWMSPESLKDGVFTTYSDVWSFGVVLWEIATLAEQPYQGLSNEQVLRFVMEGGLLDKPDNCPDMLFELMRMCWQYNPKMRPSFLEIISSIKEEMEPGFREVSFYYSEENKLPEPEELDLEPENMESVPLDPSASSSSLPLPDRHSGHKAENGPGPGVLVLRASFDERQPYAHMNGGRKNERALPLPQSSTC

| Structure (SMILES) | IC50 [nM] |
| --- | --- |
| COc1ccc(N2CC[C@@H](N(C)C)C2)cc1Nc1ncc(Cl)c(-c2cnc3ccccn23)n1 [Example 3.13, 5-chloro-N-[5-[(3R)-3-dimethylaminopyrrolidin-1-yl]-2-methoxy-phenyl]-4-imidazo[1,2-a]pyridin-3-yl-pyrimidin-2-amine] | 60 |
| COc1cc(N2CCN(C(=O)[C@H](C)N)CC2)ccc1Nc1ncc(Cl)c(-c2cnc3cc(C)ccn23)n1 [Example 258, (2S)-2-amino-1-[4-[4-[[5-chloro-4-(7-methylimidazo[1,2-a]pyridin-3-yl)pyrimidin-2-yl]amino]-3-methoxy-phenyl]piperazin-1-yl]propan-1-one] | 5 |
| COc1cc(N2CCC(O)CC2)ccc1Nc1ncc(F)c(-c2cnc3ccccn23)n1 [Example 111, 1-[4-[(5-fluoro-4-imidazo[1,2-a]pyridin-3-yl-pyrimidin-2-yl)amino]-3-methoxy-phenyl]piperidin-4-ol] | 49 |
| COc1cc(N2CCN(C(C)(C)CO)CC2)ccc1Nc1ncc(C)c(-c2cnn3ccccc23)n1 [Example 231, 2-[4-[3-methoxy-4-[(5-methyl-4-pyrazolo[1,5-a]pyridin-3-yl-pyrimidin-2-yl)amino]phenyl]piperazin-1-yl]-2-methyl-propan-1-ol] | 20 |
| COc1cc(N2CCN(C(C)=O)CC2)c(C)cc1Nc1ncc(Cl)c(-c2cnc3ccccn23)n1 [Example 278, 1-[4-[4-[(5-chloro-4-imidazo[1,2-a]pyridin-3-yl-pyrimidin-2-yl)amino]-5-methoxy-2-methyl-phenyl]piperazin-1-yl]ethanone] | 8 |
| COc1cc(N2CCN(C(C)=O)C[C@@H](O)C2)ccc1Nc1ncc(Cl)c(-c2cnc3ccccn23)n1 [Example 3.40, 1-[(6S)-4-[4-[(5-chloro-4-imidazo[1,2-a]pyridin-3-yl-pyrimidin-2-yl)amino]-3-methoxy-phenyl]-6-hydroxy-1,4-diazepan-1-yl]ethanone] | 24 |
| COc1cc(C2CCN(C(C)=O)CC2)ccc1Nc1ncc(Cl)c(-c2cnc3c(F)cccn23)n1 [Example 177, 1-[4-[4-[[5-chloro-4-(8-fluoroimidazo[1,2-a]pyridin-3-yl)pyrimidin-2-yl]amino]-3-methoxy-phenyl]-1-piperidyl]ethanone] | 5 |
| COc1cc(C2CCN(C(=O)CO)CC2)ccc1Nc1ncc(Cl)c(-c2cnc3c(F)cccn23)n1 [Example 179, 1-[4-[4-[[5-chloro-4-(8-fluoroimidazo[1,2-a]pyridin-3-yl)pyrimidin-2-yl]amino]-3-methoxy-phenyl]-1-piperidyl]-2-hydroxy-ethanone] | 8 |
| COc1cc(N2CCN(CCO)[C@H](C)C2)ccc1Nc1ncc(F)c(-c2cnc3ccccn23)n1 [Example 272, 2-[(2R)-4-[4-[(5-fluoro-4-imidazo[1,2-a]pyridin-3-yl-pyrimidin-2-yl)amino]-3-methoxy-phenyl]-2-methyl-piperazin-1-yl]ethanol] | 270 |
| COc1cc(N2CCN(C(C)=O)CC2)ccc1Nc1ncc(C2CC2)c(-c2cnn3ccccc23)n1 [Example 234, 1-[4-[4-[(5-cyclopropyl-4-pyrazolo[1,5-a]pyridin-3-yl-pyrimidin-2-yl)amino]-3-methoxy-phenyl]piperazin-1-yl]ethanone] | 31 |
| CC(=O)N1CCN(c2ccc(Nc3ncc(Cl)c(-c4cnc5ccccn45)n3)c(OC(C)C)c2)CC1 [Example 3.34, 1-[4-[4-[(5-chloro-4-imidazo[1,2-a]pyridin-3-yl-pyrimidin-2-yl)amino]-3-isopropoxy-phenyl]piperazin-1-yl]ethanone] | 22 |
| COc1cc(N2CC3CNCC(C2)O3)ccc1Nc1ncc(Cl)c(-c2cnn3ccccc23)n1 [Example 149, 5-chloro-N-[2-methoxy-4-(9-oxa-3,7-diazabicyclo[3.3.1]nonan-7-yl)phenyl]-4-pyrazolo[1,5-a]pyridin-3-yl-pyrimidin-2-amine] | 7 |
| COc1cc(N2CCN(C(=O)CO)CC2)ccc1Nc1ncc(Cl)c(-c2cnc3ccc(F)cn23)n1 [Example 249, 1-[4-[4-[[5-chloro-4-(6-fluoroimidazo[1,2-a]pyridin-3-yl)pyrimidin-2-yl]amino]-3-methoxy-phenyl]piperazin-1-yl]-2-hydroxy-ethanone] | 5 |
| COc1cc(C2CCN(C(C)=O)CC2)ccc1Nc1ncc(C)c(-c2cnc3c(F)cccn23)n1 [Example 196, 1-[4-[4-[[4-(8-fluoroimidazo[1,2-a]pyridin-3-yl)-5-methyl-pyrimidin-2-yl]amino]-3-methoxy-phenyl]-1-piperidyl]ethanone] | 13 |
| COc1cc(OCC(=O)N(C)C)ccc1Nc1ncc(Cl)c(-c2cnc3c(F)cccn23)n1 [Example 217, 2-[4-[[5-chloro-4-(8-fluoroimidazo[1,2-a]pyridin-3-yl)pyrimidin-2-yl]amino]-3-methoxy-phenoxy]-N,N-dimethyl-acetamide] | 10 |
| COc1cc(N2CC3CN(C(C)=O)CC(C2)O3)ccc1Nc1ncc(Cl)c(-c2cnc3c(F)cccn23)n1 [Example 215, 1-[3-[4-[[5-chloro-4-(8-fluoroimidazo[1,2-a]pyridin-3-yl)pyrimidin-2-yl]amino]-3-methoxy-phenyl]-9-oxa-3,7-diazabicyclo[3.3.1]nonan-7-yl]ethanone] | 9 |
| COc1cc(C2CCN(C(=O)CO)CC2)ccc1Nc1ncc(Cl)c(-c2cnn3ccccc23)n1 [Example 137, 1-[4-[4-[(5-chloro-4-pyrazolo[1,5-a]pyridin-3-yl-pyrimidin-2-yl)amino]-3-methoxy-phenyl]-1-piperidyl]-2-hydroxy-ethanone] | 3 |

Results, then the compound that gave them:

| IC50 [nM] | Structure (SMILES) |
| --- | --- |
| 11 | COc1cc(O[C@@H]2CCNC2)ccc1Nc1ncc(Cl)c(-c2cnc3ccccn23)n1 [Example 6.5, 5-chloro-4-imidazo[1,2-a]pyridin-3-yl-N-[2-methoxy-4-[(3R)-pyrrolidin-3-yl]oxy-phenyl]pyrimidin-2-amine] |
| 9 | COc1cc(N2CCN(C(=O)C3CCC(=O)N3)CC2)ccc1Nc1ncc(Cl)c(-c2cnc3ccccn23)n1 (centres unmarked) [Example 25.1, 5-[4-[4-[(5-chloro-4-imidazo[1,2-a]pyridin-3-yl-pyrimidin-2-yl)amino]-3-methoxy-phenyl]piperazine-1-carbonyl]pyrrolidin-2-one] |
| 28 | COc1cc(CN2CCC[C@H](O)C2)ccc1Nc1ncc(Cl)c(-c2cnc3ccccn23)n1 [Example 21.17, (3S)-1-[[4-[(5-chloro-4-imidazo[1,2-a]pyridin-3-yl-pyrimidin-2-yl)amino]-3-methoxy-phenyl]methyl]piperidin-3-ol] |
| 14 | COc1cc(OC2CN(C(=O)[C@@H](C)O)C2)ccc1Nc1ncc(Cl)c(-c2cnc3ccccn23)n1 [Example 27.6, (2R)-1-[3-[4-[(5-chloro-4-imidazo[1,2-a]pyridin-3-yl-pyrimidin-2-yl)amino]-3-methoxy-phenoxy]azetidin-1-yl]-2-hydroxy-propan-1-one] |
| 14 | COc1cc(C2CCN(C(=O)[C@H](C)O)CC2)ccc1Nc1ncc(Cl)c(-c2cnc3ccccn23)n1 [Example 28.4, (2S)-1-[4-[4-[(5-chloro-4-imidazo[1,2-a]pyridin-3-yl-pyrimidin-2-yl)amino]-3-methoxy-phenyl]-1-piperidyl]-2-hydroxy-propan-1-one] |
| 26 | COc1cc(CN2CCN(C(C)=O)CC2)ccc1Nc1ncc(Cl)c(-c2cnc3ccccn23)n1 [Example 21.6, 1-[4-[[4-[(5-chloro-4-imidazo[1,2-a]pyridin-3-yl-pyrimidin-2-yl)amino]-3-methoxy-phenyl]methyl]piperazin-1-yl]ethanone] |

From patent publication US20100105655A1, “NOVEL COMPOUNDS 515” (ASTRAZENECA AB, priority 2008, published 2010)
